According to publication PMC9318686, “Identification of NAPRT Inhibitors with Anti-Cancer Properties by In Silico Drug Discovery” (Pharmaceuticals, 2022):

The compounds below were run against T1, recombinant human NAPRT (nicotinic acid phosphoribosyltransferase) (Homo sapiens, UniProt Q6XQN6) (assay: HPLC of NAMN formation, Michaelis-Menten fit).
T1 construct: dimer
T1 sequence (Q6XQN6 1-538): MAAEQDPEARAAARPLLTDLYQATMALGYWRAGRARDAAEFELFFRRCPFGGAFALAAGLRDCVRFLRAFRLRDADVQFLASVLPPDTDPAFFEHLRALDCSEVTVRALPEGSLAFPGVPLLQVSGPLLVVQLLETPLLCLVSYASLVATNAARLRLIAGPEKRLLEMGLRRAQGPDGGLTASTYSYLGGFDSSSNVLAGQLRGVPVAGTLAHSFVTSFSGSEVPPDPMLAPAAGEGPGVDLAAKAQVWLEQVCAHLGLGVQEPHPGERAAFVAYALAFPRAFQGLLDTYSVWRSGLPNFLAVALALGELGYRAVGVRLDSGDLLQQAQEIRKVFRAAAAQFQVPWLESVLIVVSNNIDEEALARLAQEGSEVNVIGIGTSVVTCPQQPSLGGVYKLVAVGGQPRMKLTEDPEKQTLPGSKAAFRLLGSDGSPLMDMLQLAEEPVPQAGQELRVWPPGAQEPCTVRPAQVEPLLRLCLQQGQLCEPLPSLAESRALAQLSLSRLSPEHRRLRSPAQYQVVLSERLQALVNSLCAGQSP
Type: biochemical
Excerpt: HPLC of NAMN formation, Michaelis-Menten fit on recombinant human NAPRT (nicotinic acid phosphoribosyltransferase)

| Ki | Compound |
| --- | --- |
| 2280 µM | O=C(N[C@@H](C(=O)c1ccccc1)n1cnccc1=O)c1ccccc1 [compound 1] |
| 295 µM | O=C(O)c1cnsn1 [compound 19] |
| 308 µM | O=C(O)c1cnccc1O [compound 8] |
